The record followed here is patent US12448389B2, “BRM targeting compounds and associated methods of use” (Prelude Therapeutics Incorporated, priority 2020, dated 2025).

One assay addresses T1, SMARCA4-HiBiT (Homo sapiens, UniProt P51532).
T1 construct: SMARCA4-HiBiT knock-in Hela monoclonal cell (CS3023226); host or cells: HeLa monoclonal knock-in line (CRISPR HiBiT knock-in at the endogenous locus, heterozygous)
The assay can be described thus: SMARCA4 HiBiT degradation assay in HeLa cells. Particulars: 18 hours incubation; for DC50: read-out: HeLa-HiBit-SM4 DC50; for Dmax: HeLa, read-out: HeLa-HiBit-SM4 Dmax (%). It counts as cell-based. A digest of the protocol:
(§1)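 HeLa monoclonal lines with heterozygous HiBiT knock-in were seeded at 2500 cells/well in EMEM with 10% FBS and treated with compound for 18 h at 37 °C. Remaining tagged protein was measured by Nano-Glo HiBiT lytic luminescence after 30–60 min at RT, and values came from curve fitting.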
For orientation: The HiBiT peptide binds its large partner to form an active luciferase.

In another assay the target is T2, SMARCA2-HiBiT (Homo sapiens, UniProt P51531).
T2 construct: SMARCA2-HiBiT knock-in Hela monoclonal cell (CS302366); host or cells: HeLa monoclonal knock-in line (CRISPR HiBiT knock-in at the endogenous locus, heterozygous)
T2 sequence (P51531 whole entry): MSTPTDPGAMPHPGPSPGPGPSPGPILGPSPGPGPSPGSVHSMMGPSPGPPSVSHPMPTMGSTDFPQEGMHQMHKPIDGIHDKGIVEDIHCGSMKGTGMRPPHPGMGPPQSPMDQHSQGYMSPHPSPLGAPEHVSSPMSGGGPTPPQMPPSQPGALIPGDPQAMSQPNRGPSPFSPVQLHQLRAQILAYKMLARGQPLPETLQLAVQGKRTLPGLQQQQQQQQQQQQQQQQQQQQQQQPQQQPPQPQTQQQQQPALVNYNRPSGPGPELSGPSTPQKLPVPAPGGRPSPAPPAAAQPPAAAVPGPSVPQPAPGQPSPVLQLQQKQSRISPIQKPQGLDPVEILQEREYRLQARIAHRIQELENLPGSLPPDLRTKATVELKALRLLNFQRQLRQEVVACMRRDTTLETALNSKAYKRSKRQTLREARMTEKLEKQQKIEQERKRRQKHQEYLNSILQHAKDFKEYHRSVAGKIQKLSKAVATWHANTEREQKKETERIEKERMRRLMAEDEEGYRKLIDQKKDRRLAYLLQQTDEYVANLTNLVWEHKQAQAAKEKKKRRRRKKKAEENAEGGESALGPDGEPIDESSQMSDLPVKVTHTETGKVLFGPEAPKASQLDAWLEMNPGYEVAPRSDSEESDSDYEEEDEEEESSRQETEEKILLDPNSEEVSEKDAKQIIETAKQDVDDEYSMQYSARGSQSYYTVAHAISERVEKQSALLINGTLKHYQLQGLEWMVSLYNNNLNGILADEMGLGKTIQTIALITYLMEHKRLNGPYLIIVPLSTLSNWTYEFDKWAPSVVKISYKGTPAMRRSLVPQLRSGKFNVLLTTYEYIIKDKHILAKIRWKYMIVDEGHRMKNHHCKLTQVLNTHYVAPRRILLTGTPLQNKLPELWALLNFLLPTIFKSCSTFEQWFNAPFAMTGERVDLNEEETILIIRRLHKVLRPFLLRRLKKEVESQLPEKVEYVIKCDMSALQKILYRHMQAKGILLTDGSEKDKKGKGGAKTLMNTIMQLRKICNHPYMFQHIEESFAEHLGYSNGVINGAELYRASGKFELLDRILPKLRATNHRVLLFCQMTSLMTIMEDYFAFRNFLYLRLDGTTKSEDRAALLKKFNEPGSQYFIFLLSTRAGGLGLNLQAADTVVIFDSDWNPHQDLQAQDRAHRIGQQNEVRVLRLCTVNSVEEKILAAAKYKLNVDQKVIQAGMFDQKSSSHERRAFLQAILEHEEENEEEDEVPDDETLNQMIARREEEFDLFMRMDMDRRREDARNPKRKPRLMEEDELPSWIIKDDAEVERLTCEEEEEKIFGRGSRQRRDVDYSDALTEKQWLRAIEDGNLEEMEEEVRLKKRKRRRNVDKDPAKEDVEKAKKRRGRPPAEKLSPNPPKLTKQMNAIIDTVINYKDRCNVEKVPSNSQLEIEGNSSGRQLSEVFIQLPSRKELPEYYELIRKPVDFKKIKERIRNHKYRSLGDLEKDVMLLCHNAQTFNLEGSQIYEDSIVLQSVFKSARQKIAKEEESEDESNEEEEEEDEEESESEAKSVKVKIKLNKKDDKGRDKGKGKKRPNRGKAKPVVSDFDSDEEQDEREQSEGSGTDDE
As to the kind of experiment: SMARCA2 HiBiT degradation assay in HeLa cells. The note with it: 18 hours incubation; for DC50: read-out: HeLa_HiBit-SM2 DC50; for Dmax: HeLa, read-out: HeLa-HiBit-SM2 Dmax (%). It counts as cell-based. The method, boiled down:
as §1

T1 sequence (P51532 whole entry): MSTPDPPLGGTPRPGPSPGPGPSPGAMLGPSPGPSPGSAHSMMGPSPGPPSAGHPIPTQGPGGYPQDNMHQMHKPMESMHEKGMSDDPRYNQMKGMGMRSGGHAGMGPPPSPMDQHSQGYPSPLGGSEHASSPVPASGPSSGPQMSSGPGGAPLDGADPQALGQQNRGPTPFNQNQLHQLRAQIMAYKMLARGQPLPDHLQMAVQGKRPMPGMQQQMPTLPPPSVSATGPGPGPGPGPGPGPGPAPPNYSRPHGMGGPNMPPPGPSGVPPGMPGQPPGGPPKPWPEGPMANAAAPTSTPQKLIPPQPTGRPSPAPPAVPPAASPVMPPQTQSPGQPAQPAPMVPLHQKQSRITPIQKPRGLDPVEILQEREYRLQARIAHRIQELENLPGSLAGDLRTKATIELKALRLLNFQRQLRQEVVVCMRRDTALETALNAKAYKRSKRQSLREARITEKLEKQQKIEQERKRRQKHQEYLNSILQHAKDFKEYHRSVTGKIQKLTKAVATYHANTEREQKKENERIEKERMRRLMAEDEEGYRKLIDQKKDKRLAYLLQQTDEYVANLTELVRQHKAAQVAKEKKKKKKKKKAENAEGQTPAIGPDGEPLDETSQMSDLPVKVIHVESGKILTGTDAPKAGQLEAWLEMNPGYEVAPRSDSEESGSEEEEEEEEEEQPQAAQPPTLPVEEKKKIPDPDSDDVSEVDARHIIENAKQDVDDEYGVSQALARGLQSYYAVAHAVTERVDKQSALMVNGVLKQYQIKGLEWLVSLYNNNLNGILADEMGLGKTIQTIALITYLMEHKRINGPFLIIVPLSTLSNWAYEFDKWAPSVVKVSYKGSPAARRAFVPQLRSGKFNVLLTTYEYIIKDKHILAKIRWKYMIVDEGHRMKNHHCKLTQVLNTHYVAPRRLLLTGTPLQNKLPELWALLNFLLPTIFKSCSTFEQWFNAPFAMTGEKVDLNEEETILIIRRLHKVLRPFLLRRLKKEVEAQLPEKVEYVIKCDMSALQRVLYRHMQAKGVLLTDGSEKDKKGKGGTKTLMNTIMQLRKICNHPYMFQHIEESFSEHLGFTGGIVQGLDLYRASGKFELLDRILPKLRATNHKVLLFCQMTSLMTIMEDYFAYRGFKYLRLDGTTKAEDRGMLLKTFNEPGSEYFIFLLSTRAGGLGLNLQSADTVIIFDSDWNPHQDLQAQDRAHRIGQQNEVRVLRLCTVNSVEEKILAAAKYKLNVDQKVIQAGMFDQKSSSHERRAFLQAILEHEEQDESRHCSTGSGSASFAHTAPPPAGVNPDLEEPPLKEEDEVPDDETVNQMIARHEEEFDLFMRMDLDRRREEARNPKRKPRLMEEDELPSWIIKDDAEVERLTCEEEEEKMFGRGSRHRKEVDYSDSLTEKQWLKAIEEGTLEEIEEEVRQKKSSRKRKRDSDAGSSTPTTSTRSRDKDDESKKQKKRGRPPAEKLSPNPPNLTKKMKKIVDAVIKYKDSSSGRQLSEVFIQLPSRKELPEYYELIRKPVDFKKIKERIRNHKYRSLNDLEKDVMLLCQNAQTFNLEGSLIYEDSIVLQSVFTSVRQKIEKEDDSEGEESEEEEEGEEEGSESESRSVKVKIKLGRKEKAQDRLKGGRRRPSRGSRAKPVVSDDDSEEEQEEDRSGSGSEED

Broadly, the DC50 is the midpoint of the concentration-degradation curve. As a reminder, the Dmax is the greatest extent of degradation seen. Take `CC1CC(CN2CCN3c4cc(-c5ccccc5O)nnc4NC[C@H]3C2)CCN1CC1CCN(c2cc3c(cc2F)C(=O)N(C2CCC(=O)NC2=O)C3=O)CC1` (stereo partly drawn) [Example 166, 2-(2,6-dioxopiperidin-3-yl)-5-fluoro-6-[4-[[4-[[(10S)-4-(2-hydroxyphenyl)-1,5,6,8,12-pentazatricyclo[8.4.0.02,7]tetradeca-2,4,6-trien-12-yl]methyl]-2-methylpiperidin-1-yl]methyl]piperidin-1-yl] isoindole-1,3-dione]: the 50% degradation concentration (DC50) at SMARCA4-HiBiT and at SMARCA2-HiBiT was under 10 nM throughout. Also, the Dmax on SMARCA4-HiBiT and at SMARCA2-HiBiT was over 85% in each case.
With `O=C1CCC(N2C(=O)c3ccc(N4CC[C@H](CN5C[C@@H]6[C@H](C5)[C@H]6CN5CCN6c7cc(-c8cc(F)ccc8O)nnc7NC[C@H]6C5)[C@@H](F)C4)cc3C2=O)C(=O)N1` (stereo partly drawn) [Example 277, 2-(2,6-dioxopiperidin-3-yl)-5-((3R,4R)-3-fluoro-4-(((1R,5S,6R)-6-(((S)-2-(5-fluoro-2-hydroxyphenyl)-5,6,6a,7,9,10-hexahydro-8H-pyrazino[1′,2′:4,5]pyrazino[2,3-c]pyridazin-8-yl)methyl)-3-azabicyclo[3.1.0]hexan-3-yl)methyl)piperidin-1-yl)isoindoline-1,3-dione], at SMARCA4-HiBiT, the “HeLa-HiBit-SM4 Dmax (%)” value is “C (C=50%<Dmax<=75%)” and the half-maximal degradation concentration (DC50) is under 10 nM. For the same molecule, at SMARCA2-HiBiT, the DC50 was under 10 nM and the Dmax was over 85%.
For `O=C1CCC(N2Cc3ccc(C4CCN(CCN5CCC(CN6CCN7c8cc(-c9ccccc9O)nnc8NC[C@H]7C6)CC5)CC4)cc3C2=O)C(=O)N1` (stereo partly drawn) [Example 120, 3-(6-(1-(2-(4-(((S)-2-(2-hydroxyphenyl)-5,6,6a,7,9,10-hexahydro-8H-pyrazino[1′,2′:4,5]pyrazino[2,3-c]pyridazin-8-yl)methyl)piperidin-1-yl)ethyl)piperidin-4-yl)-1-oxoisoindolin-2-yl) piperidine-2,6-dione], the DC50 was 10 to 100 nM at SMARCA4-HiBiT and under 10 nM at SMARCA2-HiBiT. Besides, the Dmax on SMARCA4-HiBiT and at SMARCA2-HiBiT was over 85% in each case.
As for `O=C1CCC(N2C(=O)c3ccc(N4CCC(CN5CCO[C@H](CN6CCN7c8cc(-c9ccccc9O)nnc8NC[C@H]7C6)C5)CC4)cc3C2=O)C(=O)N1` (stereo partly drawn) [Example 75, 2-(2,6-dioxopiperidin-3-yl)-5-(4-(((R)-2-(((S)-2-(2-hydroxyphenyl)-5,6,6a,7,9,10-hexahydro-8H-pyrazino[1′,2′:4,5]pyrazino[2,3-c]pyridazin-8-yl)methyl)morpholino)methyl)piperidin-1-yl)isoindoline-1,3-dione], at SMARCA4-HiBiT, the 50% degradation concentration (DC50) is under 10 nM and the maximal degradation (Dmax) fell in the range of 75 to 85%. For the same molecule, on SMARCA2-HiBiT, the half-maximal degradation concentration (DC50) was under 10 nM and the maximal degradation (Dmax) fell in the range of 75 to 85%.
For the molecule `O=C1CCC(N2C(=O)c3cccc(NCCCN4CCC(N5CCN6c7cc(-c8ccccc8O)nnc7NC[C@H]6C5)CC4)c3C2=O)C(=O)N1` (stereo partly drawn) [Example 70, 2-(2,6-dioxopiperidin-3-yl)-4-((3-(4-((S)-2-(2-hydroxyphenyl)-5,6,6a,7,9,10-hexahydro-8H-pyrazino[1′,2′:4,5]pyrazino[2,3-c]pyridazin-8-yl)piperidin-1-yl)propyl)amino)isoindoline-1,3-dione], at SMARCA4-HiBiT, the 50% degradation concentration (DC50) is under 10 nM and the maximal degradation (Dmax) is over 85%. In addition, at SMARCA2-HiBiT, the DC50 is under 10 nM and the Dmax is over 85%.
Take `O=C1CCC(N2C(=O)c3ccc(N4CCC(CN5CCC(S(=O)(=O)N6CCN7c8cc(-c9ccccc9O)nnc8NC[C@H]7C6)CC5)CC4)cc3C2=O)C(=O)N1` (stereo partly drawn) [Example 137, 2-(2,6-dioxopiperidin-3-yl)-5-(4-((4-(((S)-2-(2-hydroxyphenyl)-5,6,6a,7,9,10-hexahydro-8H-pyrazino[1′,2′:4,5]pyrazino[2,3-c]pyridazin-8-yl)sulfonyl)piperidin-1-yl)methyl)piperidin-1-yl)isoindoline-1,3-dione]: the half-maximal degradation concentration (DC50) at SMARCA4-HiBiT is 10 to 100 nM; at SMARCA2-HiBiT, under 10 nM. Further, the greatest degradation seen (Dmax) on SMARCA4-HiBiT and on SMARCA2-HiBiT was 50 to 75% in each case.
Turning to `O=C1CCC(N2C(=O)c3ccc(N4CC[C@H](CN5CCC(C(=O)N6CCN7c8cc(-c9cc(F)ccc9O)nnc8NC[C@H]7C6)CC5)[C@@H](F)C4)cc3C2=O)C(=O)N1` (stereo partly drawn) [Example 280, 2-(2,6-dioxopiperidin-3-yl)-5-((3R,4R)-3-fluoro-4-((4-((S)-2-(5-fluoro-2-hydroxyphenyl)-6,6a,7,8,9,10-hexahydro-5H-pyrazino[1′,2′:4,5]pyrazino[2,3-c]pyridazine-8-carbonyl)piperidin-1-yl)methyl)piperidin-1-yl)isoindoline-1,3-dione], at SMARCA4-HiBiT, the “HeLa-HiBit-SM4 Dmax (%)” value was “B (B=75%<Dmax<=85%)” and the DC50 is under 10 nM. Moreover, at SMARCA2-HiBiT, the “HeLa-HiBit-SM2 Dmax (%)” value was “A (A=Dmax>85%)” and the DC50 was under 10 nM.
In the case of `COC1(CN2C[C@@H]3[C@@H](CN4CCN5c6cc(-c7ccccc7O)nnc6NC[C@H]5C4)[C@@H]3C2)CCN(c2ccc3c(c2)C(=O)N(C2CCC(=O)NC2=O)C3=O)CC1` (stereo partly drawn) [Example 89, 2-(2,6-dioxopiperidin-3-yl)-5-(4-(((1R,5S,6s)-6-(((S)-2-(2-hydroxyphenyl)-5,6,6a,7,9,10-hexahydro-8H-pyrazino[1′,2′:4,5]pyrazino[2,3-c]pyridazin-8-yl)methyl)-3-azabicyclo[3.1.0]hexan-3-yl)methyl)-4-methoxypiperidin-1-yl)isoindoline-1,3-dione], on SMARCA4-HiBiT, the DC50 is under 10 nM and the greatest degradation seen (Dmax) lay in the range of 50 to 75%. Besides, at SMARCA2-HiBiT, the DC50 was under 10 nM and the Dmax is 75 to 85%.
Regarding `O=C1CCC(N2Cc3ccc(N4CCOC(CN5CCC(C(=O)N6CCN7c8cc(-c9ccccc9O)nnc8NC[C@H]7C6)CC5)C4)cc3C2=O)C(=O)N1` (stereo partly drawn) [Example 113, 3-(6-(2-((4-((S)-2-(2-hydroxyphenyl)-6,6a,7,8,9,10-hexahydro-5H-pyrazino[1′,2′:4,5]pyrazino[2,3-c]pyridazine-8-carbonyl)piperidin-1-yl)methyl)morpholino)-1-oxoisoindolin-2-yl)piperidine-2,6-dione], at SMARCA4-HiBiT, the half-maximal degradation concentration (DC50) lay in the range of 10 to 100 nM and the greatest degradation seen (Dmax) was 50 to 75%. For the same molecule, at SMARCA2-HiBiT, the DC50 was under 10 nM and the maximal degradation (Dmax) is at most 50%.
In the same order, the values of `CN(CCN1CCC(CN2CCN3c4cc(-c5ccccc5O)nnc4NC[C@H]3C2)CC1)c1ccc2c(c1)C(=O)N(C1CCC(=O)NC1=O)C2=O` (stereo partly drawn) [Example 246, 2-(2,6-dioxopiperidin-3-yl)-5-((2-(4-(((S)-2-(2-hydroxyphenyl)-5,6,6a,7,9,10-hexahydro-8H-pyrazino[1′,2′:4,5]pyrazino[2,3-c]pyridazin-8-yl)methyl)piperidin-1-yl)ethyl)(methyl)amino)isoindoline-1,3-dione] are under 10 nM, 50 to 75%, under 10 nM and 75 to 85%.
In the same order, the values of `O=C1CCC(N2C(=O)c3cccc(N4CCC(CCCN5C6CCC5CC(N5CCN7c8cc(-c9ccccc9O)nnc8NC[C@H]7C5)C6)CC4)c3C2=O)C(=O)N1` (stereo partly drawn) [Example 125, 2-(2,6-dioxopiperidin-3-yl)-4-(4-(3-(3-((S)-2-(2-hydroxyphenyl)-5,6,6a,7,9,10-hexahydro-8H-pyrazino[1′,2′:4,5]pyrazino[2,3-c]pyridazin-8-yl)-8-azabicyclo[3.2.1]octan-8-yl)propyl)piperidin-1-yl)isoindoline-1,3-dione] are under 10 nM, 75 to 85%, under 10 nM and 75 to 85%.
As to `CC1CC(C(=O)N2CCN3c4cc(-c5ccccc5O)nnc4NC[C@H]3C2)CCN1CC1CCN(c2ccc3c(c2)C(=O)N(C2CCC(=O)NC2=O)C3)CC1` (stereo partly drawn) [Example 265, 3-(6-(4-((4-((S)-2-(2-hydroxyphenyl)-6,6a,7,8,9,10-hexahydro-5H-pyrazino[1′,2′:4,5]pyrazino[2,3-c]pyridazine-8-carbonyl)-2-methylpiperidin-1-yl)methyl)piperidin-1-yl)-1-oxoisoindolin-2-yl)piperidine-2,6-dione], on SMARCA4-HiBiT, the 50% degradation concentration (DC50) lay within 10 to 100 nM and the maximal degradation (Dmax) lay in the range of 75 to 85%. In addition, at SMARCA2-HiBiT, the 50% degradation concentration (DC50) was under 10 nM and the maximal degradation (Dmax) was in the range of 75 to 85%.
Consider `O=C1CCC(N2C(=O)c3ccc(N4CCC(CN5CC6CC(C5)C6CN5CCN6c7cc(-c8ccccc8O)nnc7NC[C@H]6C5)CC4)cc3C2=O)C(=O)N1` (stereo partly drawn) [Example 39, 2-(2,6-dioxopiperidin-3-yl)-5-(4-((6-(((S)-2-(2-hydroxyphenyl)-5,6,6a,7,9,10-hexahydro-8H-pyrazino[1′,2′:4,5]pyrazino[2,3-c]pyridazin-8-yl)methyl)-3-azabicyclo[3.1.1]heptan-3-yl)methyl)piperidin-1-yl)isoindoline-1,3-dione], for which, on SMARCA4-HiBiT, the DC50 is under 10 nM and the Dmax was 50 to 75%. In addition, at SMARCA2-HiBiT, the half-maximal degradation concentration (DC50) is under 10 nM and the maximal degradation (Dmax) was over 85%.
`O=C1CCC(N2Cc3ccc(N4CC(CN5C[C@@H]6[C@H](C5)[C@H]6CN5CCN6c7cc(-c8ccccc8O)nnc7NC[C@H]6C5)C4)cc3C2=O)C(=O)N1` (stereo partly drawn) [Example 108, 3-(6-(3-(((1R,5S,6r)-6-(((S)-2-(2-hydroxyphenyl)-5,6,6a,7,9,10-hexahydro-8H-pyrazino[1′,2′:4,5]pyrazino[2,3-c]pyridazin-8-yl)methyl)-3-azabicyclo[3.1,0]hexan-3-yl)methyl)azetidin-1-yl)-1-oxoisoindolin-2-yl)piperidine-2,6-dione]: the 50% degradation concentration (DC50) on SMARCA4-HiBiT and on SMARCA2-HiBiT was under 10 nM each time. In addition, the Dmax at SMARCA4-HiBiT and on SMARCA2-HiBiT was over 85% each time.
